Reference: the NIST ThermoML archive (doi:10.1016/j.jct.2008.07.013)

Experiments:
[1] = Liquid, Alternating current cell with electrodes
[2] = molar heat capacity at constant pressure; details: 101.33 kPa, Liquid, Small sample (50 mg) DSC

CCn1cc[n+](C)c1.O=S(=O)([O-])C(F)(F)F [1-ethyl-3-methylimidazolium trifluoromethanesulfonate]
Details | electrical conductivity, [1] [S/m] | molar heat capacity at constant pressure, [2] [J/K/mol]
293.2 K | 0.834 | –
298.2 K | 0.979 | –
303.2 K | 1.16 | 379.42
308.2 K | 1.34 | 381.5
313.2 K | 1.52 | 383.33
318.2 K | 1.74 | 385.41
323.2 K | 1.94 | 387.49
328.2 K | 2.17 | 389.57
333.2 K | 2.42 | 391.65
338.2 K | – | 393.74
343.2 K | 2.94 | 395.82
348.2 K | – | 397.9
353.2 K | 3.51 | 399.72
358.2 K | – | 401.8

CCn1cc[n+](C)c1.F[B-](F)(F)F [1-ethyl-3-methylimidazolium tetrafluoroborate]
Details | electrical conductivity, [1] [S/m] | molar heat capacity at constant pressure, [2] [J/K/mol]
293.2 K | 1.38 | –
298.2 K | 1.57 | –
303.2 K | 1.789 | 306.26
308.2 K | 2.04 | 308.44
313.2 K | 2.32 | 310.61
318.2 K | 2.59 | 312.79
323.2 K | 2.91 | 314.38
328.2 K | 3.25 | 315.37
333.2 K | 3.59 | 316.36
338.2 K | – | 318.34
343.2 K | 4.35 | 319.33
348.2 K | – | 321.3
353.2 K | 5.18 | 322.89
358.2 K | – | 323.48

CCOS(=O)(=O)[O-].CCn1cc[n+](C)c1 [1-ethyl-3-methylimidazolium ethyl sulfate]
Details | electrical conductivity, [1] [S/m] | molar heat capacity at constant pressure, [2] [J/K/mol]
293.2 K | 0.31 | –
298.2 K | 0.398 | –
303.2 K | 0.493 | 429.81
308.2 K | 0.603 | 431.7
313.2 K | 0.722 | 435.01
318.2 K | 0.852 | 437.14
323.2 K | 1 | 441.39
328.2 K | 1.17 | 444.46
333.2 K | 1.34 | 447.3
338.2 K | – | 450.13
343.2 K | 1.74 | 452.97
348.2 K | – | 456.51
353.2 K | 2.15 | 461
358.2 K | – | 463.6

CCn1cc[n+](C)c1.N#CN=C=[N-] [1-ethyl-3-methylimidazolium dicyanamide]
Details | electrical conductivity, [1] [S/m] | molar heat capacity at constant pressure, [2] [J/K/mol]
293.2 K | 1.89 | –
298.2 K | 2.2 | –
303.2 K | 2.55 | 328.01
308.2 K | 2.9 | 329.96
313.2 K | 3.29 | 332.97
318.2 K | 3.68 | 335.1
323.2 K | 4.1 | 338.64
328.2 K | 4.54 | 340.77
333.2 K | 5.02 | 342.72
338.2 K | – | 344.49
343.2 K | 5.93 | 346.44
348.2 K | – | 348.92
353.2 K | 6.86 | 351.58
358.2 K | – | 354.24

CCn1cc[n+](C)c1.COCCOCCOS(=O)(=O)[O-] [1-ethyl-3-methylimidazolium 2-(2-methoxyethoxy) ethylsulfate]
Details | electrical conductivity, [1] [S/m] | molar heat capacity at constant pressure, [2] [J/K/mol]
293.2 K | 0.11 | –
298.2 K | 0.147 | –
303.2 K | 0.194 | 526.38
308.2 K | 0.244 | 527.94
313.2 K | 0.307 | 529.49
318.2 K | 0.378 | 531.04
323.2 K | 0.459 | 532.59
328.2 K | 0.545 | 533.83
333.2 K | 0.641 | 535.7
338.2 K | – | 537.25
343.2 K | 0.859 | 538.8
348.2 K | – | 540.66
353.2 K | 1.12 | 542.21
358.2 K | – | 544.08
